Earlier results in patent publication US20040147613A1, “Use of neuroactive substances for the treatment of parkinsons disease and pharmaceutical combination” (priority 2001, published 2004).

Experiments:
[1] = tested on: GABAergic axosomatic synapses in the medial prefrontal cortex; settings: 4-month chronic treatment, rat
[2] = tested on: local synapse populations / central projections
central DA-receptors = settings: foetal administrations

O=C(CCCN1CCC(O)(c2ccc(Cl)cc2)CC1)c1ccc(F)cc1 [haloperidol]
number of GABAergic axosomatic synapses in the medial prefrontal cortex [1]: dramatic rise in the number of GABAergic axosomatic synapses | sprouting of glutamatergic corticostriatal projections ([2]; 14-day chronic treatment): indications of transsynaptic sprouting of glutamatergic corticostriatal projections

CNCCCN1c2ccccc2CCc2ccccc21 [desipramine]
axonal sprouting of central projections ([2]; chronic treatment): induces axonal sprouting of central noradrenergic and probably also dopaminergic cortical projections

β-endorphin
effect on central DA-receptors (central DA-receptors): expression of the plastic capacities, typical of adult rats, of central DA-receptors ceases
